Some test systems named below: BT-549 breast; HL-60(TB) leukemia; MDA-MB-231 breast; MDA-MB-435; OVCAR-3 ovarian; PC-3 prostate; HS 578T breast.
What all share (experiment): DTP human tumour cell line panel, 48 h

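Method: 48-hour compound exposure of cells in 96-well plates, five concentrations, linear interpolation of endpoints. At the GI50, growth is halved. TGI is the concentration that stops growth completely.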

On to `CC(=O)NNC(=S)/N=C/c1c(O)cc(C)oc1=O`, for which the TGI in the experiment on BT-549 breast, in the experiment on HL-60(TB) leukemia, in the experiment with MDA-MB-231 breast, with MDA-MB-435, in the experiment on OVCAR-3 ovarian and with PC-3 prostate was greater than 100 µM each time.
In the case of `CC(=O)Nc1ccc2oc(=O)c3ccccc3c2c1`, the TGI with BT-549 breast, in the experiment with HL-60(TB) leukemia, in the experiment on HS 578T breast, with MDA-MB-435, with OVCAR-3 ovarian and with PC-3 prostate was greater than 100 µM throughout.
With `COC1OC(CBr)C(OC(c2ccccc2)(c2ccccc2)c2ccccc2)C(OC(c2ccccc2)(c2ccccc2)c2ccccc2)C1OC(c1ccccc1)(c1ccccc1)c1ccccc1` (stereo not given), the TGI with BT-549 breast was greater than 100 µM; in the experiment with HL-60(TB) leukemia, greater than 100 µM; in the experiment on HS 578T breast, 89.4 µM; in the experiment with MDA-MB-435 it was greater than 100 µM; in the experiment on OVCAR-3 ovarian it was 28.6 µM.
`N#Cc1ccc(-c2nc3ccc(Cl)cc3[nH]2)cc1`: the TGI with BT-549 breast, with HL-60(TB) leukemia, in the experiment on HS 578T breast, in the experiment with MDA-MB-231 breast, with OVCAR-3 ovarian and in the experiment on PC-3 prostate was greater than 100 µM in each case.
Take `CC1(C)CCC2(C(=O)O)CC[C@]3(C)C(=CCC4C5(C)CC[C@H](OC6OC(C(=O)O)C(O)C(OC7OC(CO)C(O)C(O)C7O)C6OC6OC(CO)C(O)C(O)C6O)C(C)(C)C5CCC43C)C2C1` (stereo not given in full): the GI50 with BT-549 breast is greater than 100 µM; with HS 578T breast, 97.4 µM; in the experiment with MDA-MB-231 breast, 45 µM; with MDA-MB-435 it was greater than 100 µM; in the experiment with OVCAR-3 ovarian, greater than 100 µM; with PC-3 prostate, 20.6 µM. Also, the total growth inhibition concentration (TGI) in the experiment on BT-549 breast was greater than 100 µM; with HS 578T breast, greater than 100 µM; with MDA-MB-231 breast it was greater than 100 µM; in the experiment on MDA-MB-435, greater than 100 µM; in the experiment on OVCAR-3 ovarian it was greater than 100 µM; in the experiment on PC-3 prostate, 38.5 µM.
With `CCCC#CC(O)(C(=O)OC1CCN(C)CC1)C1CCCCC1` (stereo not given), the concentration for total growth inhibition (TGI) with BT-549 breast, with HS 578T breast, in the experiment with MDA-MB-231 breast, in the experiment with MDA-MB-435, in the experiment with OVCAR-3 ovarian and in the experiment with PC-3 prostate was greater than 100 µM throughout.
For `NC(=O)c1cc(Cl)ccc1NC(=O)c1ccccc1-c1ccccc1`, the GI50 in the experiment on BT-549 breast was 0.572 µM; with HL-60(TB) leukemia, 0.284 µM; in the experiment with HS 578T breast it was 1.07 µM; in the experiment with MDA-MB-231 breast, 1.89 µM; with OVCAR-3 ovarian, 0.328 µM; in the experiment on PC-3 prostate, 0.567 µM. The TGI in the experiment with BT-549 breast is 52.7 µM; in the experiment with HL-60(TB) leukemia, 20.4 µM; in the experiment on HS 578T breast, greater than 100 µM; with MDA-MB-231 breast it was 43.5 µM; in the experiment with OVCAR-3 ovarian, 2.59 µM; with PC-3 prostate it was greater than 100 µM.
Turning to `COc1cc2c(=O)n(CCCn3ccnc3)c3c4cc5c(cc4ccc3c2cc1OC)OCO5`, the GI50 with BT-549 breast is 0.701 µM; in the experiment on HS 578T breast it was 2.33 µM; with MDA-MB-231 breast, 1.38 µM; in the experiment on OVCAR-3 ovarian, 0.344 µM; in the experiment on PC-3 prostate, 0.774 µM. Moreover, the TGI is greater than 100 µM with BT-549 breast; greater than 80.6 µM in the experiment with HS 578T breast; greater than 100 µM in the experiment with MDA-MB-231 breast; greater than 100 µM in the experiment with OVCAR-3 ovarian; greater than 100 µM in the experiment with PC-3 prostate.
For `N#Cc1nn(C2OC(COC(=O)c3ccccc3)C(OC(=O)c3ccccc3)C2OC(=O)c2ccccc2)c2nc[nH]c(=O)c12` (stereo not given), the TGI with HL-60(TB) leukemia was 83.4 µM; with HS 578T breast, greater than 100 µM; in the experiment on MDA-MB-231 breast, greater than 100 µM; in the experiment on MDA-MB-435 it was greater than 100 µM; with OVCAR-3 ovarian it was greater than 100 µM; in the experiment on PC-3 prostate, greater than 100 µM.
Turning to `NCCCn1c2c(c3cc4c(cc3c1=O)OCO4)C(=O)c1ccccc1-2`, the GI50 in the experiment on HL-60(TB) leukemia was 1.48 µM; in the experiment with HS 578T breast, 1.88 µM; with MDA-MB-231 breast it was 1.45 µM; in the experiment with MDA-MB-435, 0.567 µM; with OVCAR-3 ovarian, 0.564 µM; in the experiment on PC-3 prostate, 0.134 µM. Further, the TGI was determined as 2.93 µM in the experiment on HL-60(TB) leukemia; 4.4 µM with HS 578T breast; 2.88 µM with MDA-MB-231 breast; 1.42 µM with MDA-MB-435; 1.27 µM in the experiment on OVCAR-3 ovarian; 0.6 µM with PC-3 prostate.
Regarding `CC(=O)O[C@H]1C(=O)[C@@]2(C)[C@H]([C@H](OC(=O)c3ccccc3)[C@]3(O)C[C@H](OC(=O)[C@H](O)[C@@H](NC(=O)CC(C)C)c4ccccc4)C(C)=C1C3(C)C)[C@]1(OC(C)=O)CO[C@@H]1C[C@@H]2O`, the TGI was greater than 10 µM in the experiment on BT-549 breast, 0.00899 µM in the experiment on HL-60(TB) leukemia, 0.00822 µM in the experiment on HS 578T breast and greater than 10 µM with MDA-MB-231 breast.
As for `C/C=C1\C(=O)O[C@@H]2C1C[C@@H]1O[C@H]2[C@H](C)CCC/C(C)=C/CC[C@@]1(C)O` (stereo not given in full), the GI50 in the experiment with HL-60(TB) leukemia is 5.55 µM; in the experiment with MDA-MB-231 breast, 8.36 µM; in the experiment on MDA-MB-435, 6.67 µM; in the experiment on OVCAR-3 ovarian, 1.48 µM; in the experiment on PC-3 prostate, 11.8 µM. The TGI in the experiment on HL-60(TB) leukemia is greater than 100 µM; with MDA-MB-231 breast, 21.7 µM; with MDA-MB-435, 22.9 µM; in the experiment on OVCAR-3 ovarian, 11.9 µM; with PC-3 prostate it was 25.8 µM.

As usually defined, the TGI is the concentration giving total growth inhibition. The low end stands for greater sensitivity of the cells, the high end for lower sensitivity of the cells. The GI50 is the concentration giving 50% growth inhibition.
